Laboratory results reported in publication PMC5983811, “Protein Tyrosine Phosphatase 1B Inhibition and Glucose Uptake Potentials of Mulberrofuran G, Albanol B, and Kuwanon G from Root Bark of Morus alba L. in Insulin-Resistant HepG2 Cells: An In Vitro and In Silico Study” (International Journal of Molecular Sciences, 2018).

Assays:
[1] = molecular target: T1, PTP1B (human recombinant) (Homo sapiens, UniProt P18031); assay: PTP1B inhibitory assay (pNPP substrate) and kinetic study; assay type: biochemical; settings: for Ki: Dixon plot, read-out: Protein Tyrosine Phosphatase 1B Ki; for Protein Tyrosine Phosphatase 1B Inhibition Type: Lineweaver-Burk plot; for IC50: pNPP substrate, mean ± SEM of triplicate experiments, read-out: Protein Tyrosine Phosphatase 1B IC50
T1 construct: purchased Biomol International LP (Plymouth Meeting, PA, USA)
T1 sequence (P18031 1-435): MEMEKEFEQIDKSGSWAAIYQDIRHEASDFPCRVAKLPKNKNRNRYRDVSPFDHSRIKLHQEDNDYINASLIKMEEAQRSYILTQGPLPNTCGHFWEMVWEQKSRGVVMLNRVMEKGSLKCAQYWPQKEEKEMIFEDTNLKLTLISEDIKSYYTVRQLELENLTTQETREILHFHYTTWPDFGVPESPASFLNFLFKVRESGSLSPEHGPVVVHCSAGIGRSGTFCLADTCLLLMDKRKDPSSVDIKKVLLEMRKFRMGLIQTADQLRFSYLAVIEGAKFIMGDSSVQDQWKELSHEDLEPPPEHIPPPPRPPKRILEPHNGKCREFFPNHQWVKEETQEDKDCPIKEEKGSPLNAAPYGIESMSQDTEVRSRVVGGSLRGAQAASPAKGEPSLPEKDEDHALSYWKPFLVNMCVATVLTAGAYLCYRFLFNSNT
Experimental: PTP1B inhibitory activity was evaluated using pNPP [44]. Recombinant PTP1B enzyme (0.5 units diluted in PTP1B reaction buffer) was added to a plate with or without sample. The plate was pre-incubated at 37 °C for 10 min, and then substrate (2 mM pNPP) was added. Following incubation at 37 °C for 15 min, the enzymatic reaction was terminated by addition of 10 M NaOH. The absorbance was measured at 405 nm using a microplate spectrophotometer (Molecular Devices, Sunnyvale, CA, USA).
(§1) Lineweaver–Burk plots for inhibition of PTP1B were obtained in the presence of various concentrations of the test compounds (0, 0.18, 0.44 and 1.78 μM for 1; 0, 0.27, 0.54, and 1.07 μM for 2; 0, 0.87, 1.44, and 2.89 μM for 3). Similarly, for the inhibition of α-glucosidase, text concentrations used were 0, 0.71, 1.07, and 1.78 μM for 1; 0, 0.36, 0.9, and 1.79 μM for 2 and 0, 0.72, 2.88, and 5.77 μM for 3. The enzymatic procedure consisted of the same aforementioned assay method. The inhibition constants (Ki) were determined via interpretation of the Dixon plots, where the value of the x-axis implies −Ki.

[2] = Cytotoxicity in HepG2 cells (MTT assay); assay type: cell-based; settings: human, read-out: viable cell %
Experimental: In order to determine safe concentrations for cell experiments, the cytotoxicity of our test compounds in HepG2 cells was evaluated using an 3-(4,5-dimethylthiazol-2-yl)-2,5-diphenyltetrazolium bromide (MTT) assay. […] However, at 10 µM, the level of toxicity was high for 1 (viable cell %; 36), followed by 2 (viable cell %; 73) and 3 (viable cell %; 85). Therefore, 1.25, 2.5, and 5 µM concentrations were used in further cell experiments.
(§2) HepG2 (human hepatocarcinoma) cells, purchased from the American Type Culture Collection (HB-8065; Manassas, VA, USA), were maintained in 10% FBS MEM at 37 °C in a humidified atmosphere with 5% CO2. Medium was changed every 48 h. Cytotoxicity was evaluated using the MTT assay. Following the method previously described, insulin-resistant HepG2 cell model was established. All the other experiment conditions and procedures were similar to those reported in our previous paper.

[3] = system: insulin-resistant HepG2 cells; assay: Glucose uptake assay (2-NBDG) in insulin-resistant HepG2 cells; assay type: cell-based, human
Experimental: as §2
The glucose uptake rate in insulin-resistant HepG2 cells was assessed using the fluorescent D-glucose analog 2-NBDG. Once the induction of insulin resistance was accomplished, cell solutions in the wells were substituted with different concentrations of 1–3 or a positive control, rosiglitazone (10 µM), prepared in serum-free MEM (SFMEM) in respective groups. After 24 h incubation with samples, the media in the wells was replaced with 100 nM insulin diluted in SFMEM and incubated for 30 min. Cells were then incubated with 40 μM 2-NBDG for 30 min and washed with ice-cold PBS. The fluorescence intensity of 2-NBDG was measured on a fluorescence microplate reader (FL ×800, Bio-Tek Instruments, Inc., Winooski, VT, USA) at 485 nm excitation and 528 nm emission wavelengths. Six replicate wells were established, and each experiment was repeated three times.

[4] = molecular target: α-glucosidase; assay: α-Glucosidase inhibitory assay (pNPG substrate) and kinetic study; assay type: biochemical; settings: for Ki: Dixon plot; for α-Glucosidase Inhibition Type: Lineweaver-Burk plot; for IC50: pNPG substrate, mean ± SEM of triplicate experiments
Experimental: The enzyme inhibition study was carried out spectrophotometrically using the procedure previously reported. The α-glucosidase activity was determined by measuring release of […] at 405 nm using a microplate spectrophotometer (Molecular Devices).
as §1

[5] = system: PTP1B expression; assay: PTP1B expression level in insulin-resistant HepG2 cells (Western blot); assay type: cell-based, human
Experimental: Insulin-resistant HepG2 cells were exposed to different concentrations of 1–3 or rosiglitazone (10 μM) in 24-well plates. After 24 h of incubation with samples, the media in the wells was replaced with 100 nM insulin diluted in SFMEM and incubated at 37 °C for 30 min. Cells were then washed twice with ice-cold PBS, collected, and lysed with sample buffer (50 mM HEPES, pH 7.5, 150 mM NaCl, 2.5 mM EDTA, 0.5% NP-40, 1 mM PMSF, 1 mM DTT, 0.2% aprotinin, 0.5% leupeptin, 20 mM NaF, and 1 mM Na3VO4). Protein was quantified by the modified Bradford protein assay kit using BSA as a standard. Total protein (50 μg) was electrophoresed on sodium dodecyl sulfate-polyacrylamide gels (Bio-Rad, Hercules, CA, USA) and then transferred to polyvinylidene difluoride (PVDF) membranes (Immobilon-P; Millipore, Burlington, MA, USA) using the Pierce G2 Fast Blotter (Thermo Fisher Scientific Inc., Fair Lawn, NJ, USA) at 100 V for 60 min in a standard semi-dry system. Membranes were blocked in blocking buffer (5% skim milk powder in TBS-Tween buffer containing 10 mM Tris, 100 mM NaCl, and 0.1% Tween-20, pH 7.4) and incubated overnight with primary antibodies at 4 °C on a shaker, followed by incubation with appropriate secondary antibodies for 2 h at room temperature. The membranes were washed three times with TBST (3 × 10 min each) and the protein bands were visualized with the Supersignal West Pico Chemiluminescence Substrate (Pierce, Rockford, IL, USA) on X-ray films (Kodak, Rochester, NY, USA) and quantitated using CS analyzer software (Atto Corp., Tokyo, Japan).

Structure (SMILES) | Ki [1] [nM] | Protein Tyrosine Phosphatase 1B Inhibition Type [1] | IC50 [1] [nM] | viability at 10 µM [2] [%] | relative glucose uptake percentage ([3]; 5 µM) [%] | Ki [4] [nM] | α-Glucosidase Inhibition Type [4] | IC50 [4] [nM] | PTP1B expression ([5]; 2.5 and 5 μM) | PTP1B expression ([5]; concentration dependent) | relative % glucose uptake ([3]; 10 µM) [%] | PTP1B expression ([5]; 10 μM)
CC1=C[C@H]2c3c(O)cc(-c4cc5ccc(O)cc5o4)cc3O[C@@]3(c4ccc(O)cc4O)Oc4cc(O)ccc4[C@H](C1)[C@@H]23 [Compound 1, mulberrofuran G] | 700 | Mixed type | 570 ± 40 | 36 | 140 | 1200 | Mixed type | 1670 ± 20 | diminished the PTP1B expression almost completely |  |  | 
CC(C)=CCc1c(-c2ccc(O)cc2O)oc2c([C@H]3C=C(C)C[C@@H](c4ccc(O)cc4O)[C@@H]3C(=O)c3ccc(O)cc3O)c(O)cc(O)c2c1=O [Compound 3, kuwanon G] | 1980 | Mixed type | 2260 ± 30 | 85 |  | 2510 | Mixed type | 2350 ± 30 |  | downregulated the expression towards normal |  | 
Cc1cc2c3c(c1)-c1c(O)cc(-c4cc5ccc(O)cc5o4)cc1O[C@@]3(c1ccc(O)cc1O)Oc1cc(O)ccc1-2 [Compounds 2] | 1020 |  | 800 ± 20 | 73 |  |  |  |  |  |  |  | 
CN(CCOc1ccc(CC2SC(=O)NC2=O)cc1)c1ccccn1 (stereo not shown) [rosiglitazone, reference compound] |  |  |  |  |  |  |  |  |  |  | 123 | declined
